Laboratory results as given in patent USRE40594E1, “Inhibitors of the bitter taste response” (Mount Sinai School of Medicine of New York University, priority 1998, dated 2008).
“Also recorded” adds a separate entry of the source.

Columns and labels:
[1] = test system: bovine taste receptor cell membranes (taste receptors) with transducin; experiment: G protein activation assay (trypsin sensitivity): activation of transducin by bitter tastant plus taste membranes; assay type: biochemical, Bovine (Bos primigenius)
Excerpt: Taste receptor is contacted with gustducin or transducin and tastant, in the presence or absence of test inhibitor, under conditions suitable for activation of the G-protein present. […] In specific non-limiting embodiments, a subunits of transducin or gustducin may be combined with βγ subunits prior to this step, as set forth above. To the reaction mixture comprising taste receptors and gustducin or transducin, test inhibitor and/or bitter tastant may be added, and the resulting solution incubated to permit interaction of the elements.
In preferred embodiments, activation is assessed by a trypsin digestion assay. […] In a specific, non-limiting example, to perform a trypsin digestion assay according to the invention, TPCK-treated trypsin (1:25 trypsin to total protein in the reaction mixture) may be added, and the digestion may be performed at room temperature for about 15 minutes and stopped by adding soybean trypsin inhibitor (6:1 mol/mol inhibitor to trypsin). […] The separated polypeptides may then be transferred by electro-blotter to a poly (vinylidene difluoride) membrane blocked by the addition of 5% BLOTTO [50 mM Tris-HCI, pH 7.4/100 mM NaCl/5% nonfat dry milk], (30 min). G-protein peptides may then be visualized by binding of antibody directed toward transducin or gustducin, followed, for example, by binding of a detectably labeled secondary antibody. If a horseradish peroxidase-labeled secondary antibody is used, binding may be visualized by developing with bicinchoninic acid staining reagents and exposure to x-ray film.
G Protein Activation Assays. Bovine (Bos primigenius) tongues were collected fresh from a local slaughterhouse and transported on ice to the laboratory. Circumvallate papillae were hand dissected, frozen in liquid nitrogen, and stored at −80° C. until use. […] The pelleted membranes were rinsed twice, resuspended in homogenization buffer lacking protease inhibitors, and further homogenized by 20 passages through a 25-gauge needle. Aliquots were either flash frozen or stored on ice until use. […] The separated polypeptides were transferred by electro-blotter to a poly (vinylidene difluoride) membrane, which was blocked by the addition of 5% BLOTTO [50 mM Tris-HCI, pH 7.4/100 mM NaCl/5% nonfat dry milk], (30 min), then transducin peptides were visualized by binding of transducin antiserum and horseradish peroxidase-labeled goat anti-rabbit secondary antibody, followed by developing with bicinchoninic acid staining reagents from Bio-Rad and exposure to x-ray film.
Chemicals. All bitter tastant and buffer chemicals were of the highest purity available and were purchased either from Sigma or Boehringer Mannheim, unless otherwise noted. […] The rabbit polyclonal antitransducin antibody was a kind gift of Mel Simon and John Watson (California Institute of Technology, Pasadena, Calif.).

[2] = test system: glossopharyngeal nerve responses of C57BL/6J mice; experiment: Glossopharyngeal nerve recording on lingual stimulation with tastants; assay type: in vivo; settings: inhibitor 0.1 mM
Experimental: Nerve Recording. Glossopharyngeal nerve responses were recorded from male C57BL/6J mice as previously described (Ninomiya, Y., et al., 1997, Am. J. Physiol. (London) 272:R1002-RI006). Each mouse was anesthetized with intraperitoneal injection of sodium pentobarbital (40-50 mg/kg) and maintained at a surgical level of anesthesis with supplemental injections of the drug. The trachea was cannulated, and the mouse was then fixed in the supine position with a head holder to allow dissection of the glossopharyngeal nerve. The hypoglossal nerve was transected bilaterally to prevent inadvertent tongue movements. The right glossopharyngeal nerve was exposed by removal of the digastric muscle and posterior horn of the hyoid bone. The glossopharyngeal nerve was then dissected free from underlying tissues and cut near its entrance to the posterior foramen lacerum. The entire nerve was placed on a silver wire electrode for whole nerve recording. An indifferent electrode was positioned nearby in the wound. […] Whole nerve responses were integrated by using an RMS-DC converter (Hendrick, Tallahassee, Fla.) with a time constant of 0.5 s. For chemical stimulation of the circumvallate and foliate papillae, an incision was made on each side of the animal's face from the comer of the mouth to just above the angle of the jaw, the papillae were exposed, and their trenches opened via slight tension applied through a small suture sewn in the tip of the tongue. Tastant solutions were delivered to the tongue by gravity flow, and flowed over the tongue for a controlled period. The stability of each preparation was monitored by the periodic application of 0.1 M NH4Cl. A recording was considered to be stable when the 0.1 M NH4Cl response magnitudes at the beginning and end of each stimulation series deviated by no more than 15%. Only responses from stable recordings were used in the data analysis. In the analysis of whole nerve responses, the magnitudes of the integrated response at 20, 25, 30, 35. and 40 s after stimulus onset were measured and averaged to generate tonic responses: the tonic response represents the sustained nerve response to continuous tastant stimulation of taste receptor cells. The relative tonic response for each stimulus was obtained by normalization to the response from 0.1 M NH4Cl (the tonic response of NH4Cl was defined as 1.0). Student's t test was used for statistical analysis.

Nc1nc2c(ncn2[C@@H]2O[C@H](COP(=O)(O)O)[C@@H](O)[C@H]2O)c(=O)[nH]1 [GMP, reference compound]
inhibition of in vitro activation of transducin (G-protein) by taste membranes plus bitter compounds, summary statement ([1]; DEN, QUI and other bitter compounds, concentrations not given): did not | inhibition of taste membrane activation of transducin in response to other bitter tastants (than DEN) ([1]; concentrations not given): did not inhibit | inhibition of activation of transducin by DEN plus bovine taste receptor membranes ([1]; inhibitor 0.25, 0.5, 1.25, 2.5, 5.0 mM, DEN 5.0 mM, shift from 32-kDa to 23-kDa fragments, FIG. 1A/1E): does not inhibit; also recorded: did not inhibit | inhibition of glossopharyngeal nerve responses to atropine ([2]; 1.0 mM ATR, FIGS. 4A-C): had no effect | inhibition of glossopharyngeal nerve responses to sparteine ([2]; 1.0 mM SPA, FIGS. 4A-C, 4I (P<0.001)): had no effect | inhibition of glossopharyngeal nerve responses to strychnine ([2]; 1.0 mM STR, FIGS. 4A-C): had no effect | inhibition of glossopharyngeal nerve responses to DEN ([2]; 5.0 mM DEN, FIGS. 4A-C): had no effect | inhibition of glossopharyngeal nerve responses to QUI ([2]; QUI 0.1 and 1.0 mM, FIGS. 4D-F): had no effect
